Patent US7618998B2, “Isoflavone derivatives and pharmaceutical compositions comprising the same” (Kaosiung Medical University, priority 2008, dated 2009)

Key:
[1] = test system: hADSCs; assay: Osteogenic differentiation, quantification of mineralization (Alizarin red S) in hADSCs; type: cell-based, Human; details: 10 μM, osteo-induction medium
Protocol: (§1) Human adipose tissue derived stem cells (hADSCs), which is derived from adipose tissue, were selected an maintained in a keratinocyte SFM medium (Gibco BRL, Gaithersburg, Md.) supplemented with 5% FBS, 100 U/ml of penicillin and streptomycin.
(§2) New synthetic compounds were dissolved in DMSO to a final concentration of 10 mM and stored at −20° C. The concentration used was 10 μM and freshly diluted to the medium with a final concentration of DMSO at 0.1%. Control cultures were treated with the same amount of DMSO as used in the corresponding experiments.
(§3) Osteogenic differentiation was induced by culturing cells in an osteo-induction medium (OIM, 10% FBS, 0.1 μM dexamethasone, 10 mM β-glycerophosphate, and L-Ascorbic 2 phosphate 100 μM in low glucose DMEM) for 7-14 days. The extracellular matrix calcification was estimated by using an Alizarin red S stain (Carl, A. et al Anal. Biochem. 2004, 329, 77). The Alizarin red S-stained mineral was quantified by the osteogenesis quantification kit (CHEMICON®).

[2] = test system: D1 cells; assay: Cell viability by MTT assay in D1 cells; type: cell-based, Balb/c mice; details: 10 μM, % of control
Protocol: (§4) D1-cell, which is a mesenchymal stem cell line cloned from bone marrow cells of Balb/c mice, were purchased from American Type Culture Collection (Rockville, Md.). D1-cells can be induced into osteoblasts, adipocytes and chondrocytes. D1-cells were maintained in DMEM (Gibco BRL, Gaithersburg, Md.) supplemented with 10% FBS, 100 U/ml of penicillin and streptomycin.
as §2
(§5) The MTT assay is a calorimetric assay based on the ability of the viable cells to reduce a soluble yellow tetrazolium salt to blue formazan crystals (Carmichael, J. et. el. Cancer Research 1987, 47, 936). After compound treatments, 350 μL of MTT solution ([…] in PBS) were added to each well and incubated for 4 hrs. DMSO was then added for another 0.5 hrs to thoroughly dissolve the dark blue crystals. The absorbance at 570 nm was measured with an ELISA reader. Inhibition of mitochondrial metabolism was shown as relative activity (% of control).

[3] = test system: D1 cells; assay: Osteogenic differentiation, quantification of mineralization (Alizarin red S) in D1 cells; type: cell-based, Balb/c mice; details: 10 μM, osteo-induction medium
Protocol: as §4, §2, §3

[4] = test system: hADSCs; assay: Cell viability by MTT assay in hADSCs; type: cell-based, Human; details: 10 μM, % of control
Protocol: as §1, §2, §5

[5] = test system: TRAP activity in RAW 264.7; assay: Tartrate resistant acid phosphatase (TRAP) solution assay in RANKL-treated RAW 264.7 cells; type: cell-based; details: for inhibition at 10 µM: Mus musculus, RAW264.7, 120 h, 5 days, RANKL 100 ng/mL
Protocol: 10^3 Raw 264.7 cells were cultured in 96-well plates with 100 ng/mL RANKL (R&D Systems, Minneapolis, Minn.). Cultures were incubated at 37° C. in 5% CO2 for 5 days with the addition of media containing fresh RANKL on day 3. In the TRAP solution assay, enzyme activity was examined by the conversion of α-naphthyl phosphate (4 mmol/liter; Sigma Chemical Co.) to α-naphthol in the presence of a 2 mol/liter L-tartrate solution (Sigma Chemical Co.) in each well. Absorbance was measured at 405 nm using a microplate reader (model 550; Bio-Rad Labs.) (Bandyopadhyay, S. et. el. Biochem. Pharmacol. 2006, 72, 184.).

[6] = test system: MC3T3E1 cells; assay: Osteogenic differentiation, quantification of mineralization (Alizarin red S) in MC3T3E1 cells; type: cell-based, C57BL/6 mice; details: for Mineralization MC3T3E1 cells (12 days): 10 μM, osteo-induction medium
Protocol: MC3T3E1 cell, which is a preosteoblast cell line derived from calvaria of C57BL/6 mice, were obtained from the American Type Culture Collection (Rockville, Md.). MC3T3E1 cells were maintained in αMEM (Gibco BRL, Gaithersburg, Md.) supplemented with 10% FBS, 100 U/mL of penicillin and streptomycin.
as §2, §3

SMILES	Mineralization hADSCs (10 days) [1]	Cell viability D1 cells (3 days, MTT) [2]	Mineralization D1 cells (7 days) [3]	Cell viability hADSCs (3 days, MTT) [4]	inhibition at 10 µM [5]	Mineralization MC3T3E1 cells (12 days) [6]	melting point	Osteoclast inhibitory activity (inhibition of TRAP activity in RAW 264.7) relative to ipriflavone ([5]; more active than ipriflavone)	Promotion of osteoblast activity (mineralization in MC3T3E1 cells) relative to ipriflavone ([6]; more active than ipriflavone)	Anti-osteoporotic activities compared with compound 5c ([5]; overall statement on Tables 1 and 2 (TRAP inhibition and mineralization))
CC(C)Oc1ccc2c(=O)c(-c3ccccc3)coc2c1 [Ipriflavone, reference compound]	100%	81%	100%	99%	31%	100%				
COc1ccc2c(=O)c(-c3ccc(OCC4CO4)cc3)coc2c1 (stereo not drawn) [Compound 3, 7-Methoxy-3-[4-(oxiran-2-ylmethoxy)phenyl]-4H-chromen-4-one]					107%		153 to 154 °C			
COc1ccc2c(=O)c(-c3ccc(OCC(O)CNC4CC4)cc3)coc2c1 (stereo not drawn) [Compound 5b]					103%		105 to 106 °C			
COc1ccc2c(=O)c(-c3ccc(OCC(O)CNC4CCCCC4)cc3)coc2c1 (stereo not drawn) [Compound 5c, 3-{4-[3-(Cyclohexylamino)-2-hydroxypropoxy]phenyl}-7-methoxy-4H-chromen-4-one]		82%	78%	97%	119%	976%	125 to 126 °C	4 fold	10 fold	
COc1ccc(-c2coc3cc(OCC(O)CNC4CCCCC4)ccc3c2=O)cc1OC (stereo not drawn) [Compound 6c, 7-[3-(Cyclohexylamino)-2-hydroxypropoxy]-3-(3,4-dimethoxyphenyl)-4H-chromen-4-one]					120%		70 to 71 °C			
COc1ccc(-c2coc3cc(OCC4CO4)ccc3c2=O)cc1OC (stereo not drawn) [Compound 4, 3-(3,4-Dimethoxyphenyl)-7-(oxiran-2-ylmethoxy)-4H-chromen-4-one]	429%	76%	112%	84%	119%	977%				comparable anti-osteoporotic activities with that of compound 5c
COc1ccc(-c2coc3cc(OCC(O)CN4CCOCC4)ccc3c2=O)cc1OC (stereo not drawn) [Compound 6a, 3-(3,4-Dimethoxyphenyl)-7-(2-hydroxy-3-morpholinopropoxy)-4H-chromen-4-one]					0%		135 to 136 °C			
COc1ccc(-c2coc3cc(OCC(O)CN4CCNCC4)ccc3c2=O)cc1OC (stereo not drawn) [Compound 6b, 3-(3,4-Dimethoxyphenyl)-7-[2-hydroxy-3-(piperazin-1-yl)propoxy]-4H-chromen-4-one]					0%		84 to 85 °C			
COc1ccc2c(=O)c(-c3ccc(OCC(O)CN4CCOCC4)cc3)coc2c1 (stereo not drawn) [Compound 5a, 3-[4-(2-Hydroxy-3-morpholinopropoxy)phenyl]-7-methoxy-4H-chromen-4-one]					0%		117 to 118 °C			
